Results reported in US20230391772A1, “METHODS AND COMPOSITIONS FOR TARGETED PROTEIN DEGRADATION” (Ranok Therapeutics (Hangzhou) Co. Ltd., priority 2020, published 2023).

Key:
HSP90a protein = molecular target: T1, HSP90a protein (Homo sapiens, UniProt P07900); test: HSP90α-binding fluorescent polarization (FP) assay, BODIPY-labeled RNK04010 probe; conditions: FP competition with RNK04010 (BODIPY-labeled), 5 nM, 300 min at 25° C.
T1 construct: purchased BPS Bioscience 50298
Method in brief: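 Test compounds (2.5-fold serial dilution, 20 μM to 5.2 nM) competed with a fluorescent tracer for N-terminal HSP90a, with fluorescence polarization as the read-out. FITC-geldanamycin tracer was used at 5 nM final with 120 min incubation at 25° C; BODIPY-labeled RNK04010 was used at 5 nM final with 300 min incubation.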

KRAS(G12C) [1] = molecular target: T2, KRAS(G12C) (Homo sapiens, UniProt P01116, G12C); test: KRAS(G12C)/SOS1 homogeneous time-resolved fluorescence (HTRF) assay; parameters: purchased Cisbio 63ADK000CB16PEG; conditions: absence of GTP, 4° C. for 3 hr, read-out: KRAS (G12C) binding
T2 sequence (P01116 1-188 isoform P01116-2 G12C): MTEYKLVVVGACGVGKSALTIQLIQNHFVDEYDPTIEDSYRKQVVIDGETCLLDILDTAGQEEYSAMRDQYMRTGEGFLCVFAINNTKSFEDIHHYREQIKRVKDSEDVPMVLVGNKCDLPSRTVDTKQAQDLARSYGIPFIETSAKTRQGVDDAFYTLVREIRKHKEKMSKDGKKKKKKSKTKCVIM
Method in brief: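 HTRF kit measuring compound-induced block of KRAS(G12C)-SOS1 interaction without GTP. Compounds tested as 3-fold serial dilutions down to 1.02 nM, incubated with reaction components 3 h at 4 °C in sealed plates before fluorescence read.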

KRAS(G12C) [2] = molecular target: T2, KRAS(G12C); test: KRAS(G12C) Western blot protein degradation assay in MIA PaCa-2 cells; format: cell-based; parameters: host or cells: LU65A; conditions: 48 hr; for inhibition at 10 µM: 10,000 nM; for inhibition at 0.1562 µM: 156.2 nM; for inhibition at 0.3125 µM: 312.5 nM; for inhibition at 0.625 µM: 625 nM; for inhibition at 1.25 µM: 1250 nM; for inhibition at 2.5 µM: 2500 nM; for inhibition at 5 µM: 5000 nM
Procedure: The following cancer cell lines were employed: BT-474 human breast carcinoma (ATCC, #HTB-20); MIA PaCa-2 human pancreatic carcinoma [2 copies KRAS(G12C)](ATCC, #CRL-1420); NCI-H23 human non-small cell lung cancer [1 copy KRAS(G12C)](ATCC, #CRL-5800); NCI-H358 human non-small cell lung cancer [1 copy KRAS(G12C)](ATCC, #CRL-5807); LU65A human lung carcinoma (Pharmaron, Beijing, China). Cell lines were cultured essentially according to ATCC and Pharmaron recommendations.
KRAS(G12C) Western Blot Protein Degradation Assay
The MIA PaCa-2 human pancreatic carcinoma cell line and LU65A human lung cancer cell line, which expresses KRAS(G12C), were seeded in 6- or 12-well tissue culture plates, and after 1 hr, test compounds were added at various concentrations and incubated at 37° C./5% CO2 for 48 hr (MIA Paca-2) and 6 hr (LU65A) respectively. Cells were then washed with cold PBS, aspirated and cold RIPA buffer containing a protease/phosphatase inhibitor cocktail was added to lyse cells. After centrifugation, the total protein concentrations of cell lysates were determined using the BCA protein assay. Samples were normalized for equivalent protein concentrations, 5×SDS-PAGE loading buffer added and denatured at 100° C. for 10 min. 20 μl of each sample/well was loaded on a SDS-PAGE gel and electrophoresed for 20 min at 80 V, then 120 V for 1.5 hr. Gels were then electroblotted to nitrocellulose membranes using a wet-transfer method at 250 mA for 2.5 hr. Membranes were incubated with blocking buffer for 1 hr and washed 3 times with TBST for 5 min. Membranes were then incubated with anti-KRAS (Sigma-Aldrich, #SAB1404011) and anti-β-Actin monoclonal antibodies (Cell Signaling Technology, #3700) diluted in blocking buffer at 4° C. overnight per the manufacturer's recommendations. After washing 3 times, blots were incubated with appropriately labeled secondary antibodies for 1 hr at room temperature and washed again. Fluorescence imaging and quantitation was performed using a LI-COR Odyssey. Results was analyzed using GraphPad Prism 7 software. Compound degradation of was determined by the following equation and DC50 values (the concentration at which 50% of the maximal degradation of KRAS occurs) calculated using GraphPad Prism 7 software:
% Inhibition=100−(D−B)/(S−B)*100%. • S: Fluorescence intensity of cells with antibody • D: Fluorescence intensity of compound-treated cells with antibody • B: Fluorescence intensity of cells without antibody

KRAS(G12C) [3] = molecular target: T2, KRAS(G12C); test: KRAS(G12C) Western blot protein degradation assay in LU65A cells; format: cell-based; parameters: LU65A human lung cancer cell line, which expresses KRAS(G12C); host or cells: LU65A; conditions: 6 hr
Method in brief: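 Cells treated with compound at various concentrations at 37 °C for 48 hr (MIA PaCa-2) or 6 hr (LU65A), then lysed in RIPA. Protein-normalized lysates immunoblotted for KRAS with β-actin, fluorescence quantified; DC50 is the concentration giving 50% of maximal KRAS degradation.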

[4] = test system: MIA PaCa-2 human pancreatic carcinoma; test: MIA PaCa-2 CCK-8 proliferation assay; format: cell-based; conditions: Homo sapiens, MIA PaCa-2, 72 h, MIA PaCa-2 cells
Method in brief: (§1)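 CCK-8 absorbance readout; % inhibition = 100 − (compound − blank)/(DMSO − blank) × 100, blank = medium + DMSO, no cells. Dose range 20 μM down to 1.02 nM, 3-fold steps. KRAS(G12C) copy number: MIA PaCa-2 2; NCI-H358 1; NCI-H23 1.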

[5] = test system: NCI-H358 human non-small cell lung cancer; test: NCI-H358 CCK-8 proliferation assay; format: cell-based; conditions: NCI-H358 cells, 72 hr
Method in brief: as §1

SMILES	IC50 (HSP90a protein) [µM]	IC50 (KRAS(G12C) [1]) [µM]	inhibition at 10 µM (KRAS(G12C) [2]) [%]	DC50 (KRAS(G12C) [3]) [µM]	EC50 [4] [µM]	inhibition at 0.1562 µM (KRAS(G12C) [2]) [%]	inhibition at 0.3125 µM (KRAS(G12C) [2]) [%]	inhibition at 0.625 µM (KRAS(G12C) [2]) [%]	inhibition at 1.25 µM (KRAS(G12C) [2]) [%]	inhibition at 2.5 µM (KRAS(G12C) [2]) [%]	inhibition at 5 µM (KRAS(G12C) [2]) [%]	EC50 [5] [µM]
C=CC(=O)N1CCN(c2nc(OC[C@@H]3CCN(CCC(=O)c4cc(C(C)C)c(O)cc4O)C3)nc3c2CCN(c2cccc4cccc(Cl)c24)C3)C[C@@H]1CC#N [Compound 186, 2-((S)-1-acryloyl-4-(7-(8-chloronaphthalen-1-yl)-2-(((R)-1-(3-(2,4-dihydroxy-5-isopropylphenyl)-3-oxopropyl)pyrrolidin-3-yl)methoxy)-5,6,7,8-tetrahydropyrido[3,4-d]pyrimidin-4-yl)piperazin-2-yl)acetonitrile, trifluoroacetic acid]	> 1	0.1 to 1	33 to 66	> 1								
C=CC(=O)N1CCN(c2nc(OC[C@@H]3CCN(C(=O)c4cc(C(C)C)c(O)cc4OC)C3)nc3c2CCN(c2cccc4cccc(Cl)c24)C3)C[C@@H]1CC#N [Compound 153, 2-((S)-1-acryloyl-4-(7-(8-chloronaphthalen-1-yl)-2-(((R)-1-(4-hydroxy-5-isopropyl-2-methoxybenzoyl)pyrrolidin-3-yl)methoxy)-5,6,7,8-tetrahydropyrido[3,4-d]pyrimidin-4-yl)piperazin-2-yl)acetonitrile]	> 1		< 33		> 1	< 33	< 33	< 33	< 33	< 33	< 33	> 1
C=CC(=O)N1CCN(c2nc(OC[C@@H]3CCN(C(=O)c4cc(C(C)C)c(OC)cc4O)C3)nc3c2CCN(c2cccc4cccc(Cl)c24)C3)C[C@@H]1CC#N [Compound 159, 2-((S)-1-acryloyl-4-(7-(8-chloronaphthalen-1-yl)-2-(((R)-1-(2-hydroxy-5-isopropyl-4-methoxybenzoyl)pyrrolidin-3-yl)methoxy)-5,6,7,8-tetrahydropyrido[3,4-d]pyrimidin-4-yl)piperazin-2-yl)acetonitrile]	> 1	> 1	< 33			< 33	< 33	< 33	< 33	< 33	< 33	> 1
C=CC(=O)N1CCN(c2nc(OC[C@@H]3CCN(C(=O)c4cc(CC)c(O)cc4O)C3)nc3c2CCN(c2cccc4cccc(Cl)c24)C3)C[C@@H]1CC#N [Compound 158, 2-((S)-1-acryloyl-4-(7-(8-chloronaphthalen-1-yl)-2-(((R)-1-(5-ethyl-2,4-dihydroxybenzoyl)pyrrolidin-3-yl)methoxy)-5,6,7,8-tetrahydropyrido[3,4-d]pyrimidin-4-yl)piperazin-2-yl)acetonitrile]	> 1	> 1	< 33		> 1	< 33	< 33	< 33	< 33	< 33	< 33	> 1

The remaining lines, values ahead:

IC50 (HSP90a protein) [µM]	IC50 (KRAS(G12C) [1]) [µM]	inhibition at 10 µM (KRAS(G12C) [2]) [%]	DC50 (KRAS(G12C) [3]) [µM]	EC50 [4] [µM]	inhibition at 0.1562 µM (KRAS(G12C) [2]) [%]	inhibition at 0.3125 µM (KRAS(G12C) [2]) [%]	inhibition at 0.625 µM (KRAS(G12C) [2]) [%]	inhibition at 1.25 µM (KRAS(G12C) [2]) [%]	inhibition at 2.5 µM (KRAS(G12C) [2]) [%]	inhibition at 5 µM (KRAS(G12C) [2]) [%]	EC50 [5] [µM]	SMILES
> 1	> 1	< 33			< 33	< 33	< 33	< 33	< 33	< 33	> 1	C=CC(=O)N1CCN(c2nc(OC[C@@H]3CCN(C(=O)c4cc(C(C)C)c(O)cc4O)C3)nc3c2CCN(c2cccc4cccc(Cl)c24)C3)C[C@@H]1CC#N [Compound 157, 2-((S)-1-acryloyl-4-(7-(8-chloronaphthalen-1-yl)-2-(((R)-1-(2,4-dihydroxy-5-isopropylbenzoyl)pyrrolidin-3-yl)methoxy)-5,6,7,8-tetrahydropyrido[3,4-d]pyrimidin-4-yl)piperazin-2-yl)acetonitrile]
0.1 to 1		> 66		0.1 to 1	< 33	< 33	< 33	33 to 66	33 to 66	> 66		C=CC(=O)N1CCN(c2nc(OC[C@@H]3CCN(C(=O)C4CCN(Cc5ccc(-n6c(C(N)=O)nnc6-c6cc(C(C)C)c(O)cc6O)cc5)CC4)C3)nc3c2CCN(c2cccc4cccc(Cl)c24)C3)C[C@@H]1CC#N [Compound 183, 4-(4-((4-((R)-3-(((4-((S)-4-acryloyl-3-(cyanomethyl)piperazin-1-yl)-7-(8-chloronaphthalen-1-yl)-5,6,7,8-tetrahydropyrido[3,4-d]pyrimidin-2-yl)oxy)methyl)pyrrolidine-1-carbonyl)piperidin-1-yl)methyl)phenyl)-5-(2,4-dihydroxy-5-isopropylphenyl)-4H-1,2,4-triazole-3-carboxamide]
< 0.1	0.1 to 1	33 to 66		0.1 to 1	< 33	< 33	< 33	< 33	< 33	< 33	0.1 to 1	C=CC(=O)N1CCN(c2nc(OC[C@@H]3CCN(C(=O)C4CCN(Cc5ccc(-n6c(O)nnc6-c6cc(C(C)C)c(O)cc6O)cc5)CC4)C3)nc3c2CCN(c2cccc4cccc(Cl)c24)C3)C[C@@H]1CC#N [Compound 148, 2-((S)-1-acryloyl-4-(7-(8-chloronaphthalen-1-yl)-2-(((R)-1-(1-(4-(3-(2,4-dihydroxy-5-isopropylphenyl)-5-hydroxy-4H-1,2,4-triazol-4-yl)benzyl)piperidine-4-carbonyl)pyrrolidin-3-yl)methoxy)-5,6,7,8-tetrahydropyrido[3,4-d]pyrimidin-4-yl)piperazin-2-yl)acetonitrile]
0.1 to 1	0.1 to 1	> 66		< 0.1	< 33	< 33	< 33	33 to 66	> 66	> 66		C=CC(=O)N1CCN(c2nc(OC[C@@H]3CCN(C(=O)C4CCN(Cc5ccc(-n6c(C(=O)NCC(F)(F)F)nnc6-c6cc(C(C)C)c(O)cc6O)cc5)CC4)C3)nc3c2CCN(c2cccc4cccc(Cl)c24)C3)C[C@@H]1CC#N [Compound 185, 4-(4-((4-((R)-3-(((4-((S)-4-acryloyl-3-(cyanomethyl)piperazin-1-yl)-7-(8-chloronaphthalen-1-yl)-5,6,7,8-tetrahydropyrido[3,4-d]pyrimidin-2-yl)oxy)methyl)pyrrolidine-1-carbonyl)piperidin-1-yl)methyl)phenyl)-5-(2,4-dihydroxy-5-isopropylphenyl)-N-(2,2,2-trifluoroethyl)-4H-1,2,4-triazole-3-carboxamide]
